These results are taken from US20050267016A1, “CD-10 activated prodrug compounds” (priority 2001, published 2005).

Data set [1] has as its system PC-3 (prostate carcinoma) cells. The experiment in a line: cells. The data set is classed as cell-based, human. The protocol:
(§1) Adherent cells, LNCaP (prostate carcinoma), HT-29 (colon carcinoma) and PC-3 (prostate carcinoma), were cultured in DMEM media containing 10% heat inactivated fetal calf serum (FCS). On the day of the study the cells were detached from the plate with a trypsin solution. The collected cells were washed and resuspended at a concentration of 0.25×10^6 cells/ml in DMEM containing 10% FCS. 100 μl of cell suspension were added to 96 well plates and the plates were incubated for 3 hours to allow the cells to adhere. […] The plates were then incubated for 24 hours, pulsed with 10 μl of a 100 μCi/ml ^3H-thymidine and incubated for an additional 24 hours (total incubation time 48 hours). The plates were harvested using a 96 well Harvester (Packard Instruments) and counted on a Packard Top Count Counter. Four parameter logistic curves were fitted to the ^3H-thymidine incorporation as a function of drug molarity using Prism software to determine IC50 values.
as §1, with “carcinoma), PC-3 (prostate” for “carcinoma), HT-29 (colon”, “and 22 RV1” for “and PC-3”, “with 1:0” for “with 10”

A further data set relates to Parental CHO cells. The experiment in a line: 3H thymidine proliferation assay, parental CHO. The following applies: for IC50: Cricetulus griseus; for Ratio Suc-β-Ala-Ile-Ala-Leu/Dox: Parental CHO, ratio of IC50. The data set is classed as cell-based, Chinese Hamster.
The test system of data set [2] is LNCaP human prostate carcinoma xenografts. The protocol: LNCaP human prostate carcinoma cells express high levels of CD10 on the surface. Suc-βAla-Leu-Ala-Leu-Dox and Suc-Leu-Ala-Gly-Dox were tested at a single dose level Q7Dx5. […] The mice were weighed and tumors were measured (by caliper) at least once a week prior to start of dosing (Day 0), then twice a week during the study. Immediately before the start of dosing (Study Day −2 to Day 0), mice were randomized to various groups based on the weight of the tumors. […] Mice were euthanized after the tumors reached a cutoff weight of 1.5 g (cancer endpoint), or when mice suffered over 25% weight loss (toxic endpoint). Studies were terminated at Day 60.

The test system of the next data set is Namalwa cells (CD10pos). The experiment in a line: cells. It counts as cell-based. The following applies: for IC50: 24 hours; for Ratio Ball-1:Namalwa: ratio of IC50. The protocol: (§2) Suspension cells, BALL-1, Ramos and Namalwa cells were cultured in RPMI media containing 10% heat inactivated fetal calf serum (FCS). On the day of the study, the cells were collected, washed and resuspended at a concentration of 0.5×10^6 cells/ml in RPMI containing 10% FCS. 100 µl of cell suspension was added to 96 well plates. […] Finally 10 μl of a 100 μCi/ml ^3H-thymidine was added per well and the plates were incubated for 24 hours. The plates were harvested using a 96 well Harvester (Packard Instruments) and counted on a Packard Top Count counter. Four parameter logistic curves were fitted to the ^3H-thymidine incorporation as a function of drug molarity using Prism software to determine IC50 values.

The test system of a further data set is BALL-1 cells (CD10neg). Put plainly: cells. The method, then: as §2
(§3) The effect of two known inhibitors of CD10 on prodrug activity in Ramos, LNCaP and Ball-1 cells was evaluated. The IC50 of Suc-βAla-Ile-Ala-Leu-Dox was determined in the presence of increasing concentration of the CD10 inhibitors, phosphoramidon and thiorphan.

In the next data set the test system is Ramos cells (CD10pos). Put plainly: cells. As to conditions: for Ratio Ball-1:Ramos: ratio of IC50. The protocol: as §2, §3
Data set [3] in a line: Pharmacokinetic/metabolism study, single IV bolus. The following applies: for Major Plasma Metabolite: mice; for Plasma AUC0-6 hr of AL-Dox or AG-Dox* / Plasma AUC0-6 hr of L-Dox or G-Dox*: single IV bolus approximately 100 μmol/Kg; for Plasma AUC0-6 hr of Dox: single IV bolus approximately 100 μmol/Kg of prodrug.
Protocol: Plasma was obtained from three individual animals in each group at 5 minutes, 1, 2, 4, or 6 hr.
For data set [4], the system named is LNCaP (prostate carcinoma) cells. The protocol: as §1
as §1, with “carcinoma), PC-3 (prostate” for “carcinoma), HT-29 (colon”, “and 22 RV1” for “and PC-3”, “with 1:0” for “with 10”
as §3

In another data set the test system is Porcine Kidney CD10. Put plainly: Hydrolysis by purified CD10. The data set is classed as biochemical. The following applies: for % hydrolysis/10 hr: 12.5 μg/mL, 37° C., pH 7.4, product Leu-doxorubicin; for Fraction hydrolyzed relative to standard: standard Suc-βAla-Leu-Ala-Leu-Dox. The protocol:
Reaction products were analyzed by HPLC with fluorescence detection. Rates were essentially linear over the incubation period. The observed product was Leu-doxorubicin.

The test system of a further data set is normal ICR mice. Put plainly: Second single dose Maximum Tolerated Dose (SD-MTD) study, 49 days. The following applies: for SD-MTD Molar Ratio (Dox=): relative to doxorubicin on a molar basis. The method, then: In a second single dose Maximum Tolerated Dose (SD-MTD) study, groups of five normal ICR mice were administered intravenous bolus doses of Suc-βAla-Leu-Ala-Leu-Dox. The mice were observed daily for 49 days and body weights measured twice weekly.
In a second single dose Maximum Tolerated Dose (SD-MTD) study, groups of five normal ICR mice were administered intravenous bolus doses of Suc-Leu-Ala-Leu-Dox. The mice were observed daily for 49 days and body weights measured twice weekly.
In a second single dose Maximum Tolerated Dose (SD-MTD) study, groups of five normal ICR mice were administered intravenously bolus doses of Suc-Ile-Ala-Leu-Dox. The mice were observed daily for 49 days and body weights measured twice weekly.
In a second single dose Maximum Tolerated Dose (SD-MTD) study, groups of five normal ICR mice were administered intravenous bolus doses of Suc-βAla-Ile-Ala-Leu-Dox. The mice were observed daily for 49 days and body weights measured twice weekly.

The mark [5] stands for this setting: Dose 75 mg/kg (Table 19), Q7DX5.

The structures appear in SMILES notation. Read-outs that look alike come from different tables or passages of the source. Marks after values point to notes of the source that are not given here.

For orientation: IC50 means the point on the concentration scale where inhibition reaches its midpoint. In general, mortality refers to the percentage killed. Low values mean more survivors, high ones fewer survivors.

On to `COc1cccc2c1C(=O)c1c(O)c3c(c(O)c1C2=O)C[C@@](O)(C(=O)CO)C[C@@H]3O[C@H]1C[C@H](N)[C@H](O)[C@H](C)O1` [Doxorubicin, reference compound], for which the IC50 amounted to 75 nM in data set [1] (Homo sapiens, PC-3, 48 hours total incubation, read-out: IC50 PC-3); 40 nM in data set [1] (Homo sapiens, PC-3, Table 6, 48 hours, read-out: IC50 PC-3 CD10−PSA−); 510 nM with Parental CHO cells (CHO, Tables 25, 26, read-out: IC50 Parental CHO); 570 nM in the data set on Parental CHO cells (CHO cells, average, read-out: average IC50 in CHO cells); 10 nM in the data set with Namalwa cells (CD10pos); 20 nM in the data set with BALL-1 cells (CD10neg) (Homo sapiens, BALL-1, 24 h, read-out: IC50 Ball-1). Further, the half-inhibitory concentration (IC50) amounted to 10 nM with Ramos cells (CD10pos) (Homo sapiens, Ramos, 24 h, read-out: IC50 Ramos) and 10 nM in the data set with Ramos cells (CD10pos) (Homo sapiens, Ramos, read-out: IC50 Ramos). For the same compound, in data set [2] (Dose 5 mg/kg, Q7DX5), the “Tumor Growth Inhibition (% over control)” value was 32.5%. Further, the “Tumor Weight (mg) D14” value in data set [2] (Dose 5 mg/kg, Q7DX5) is “D14: 567 ± 77 (n = 6) mg”. In data set [2] (male, NCr nude, mouse, in vivo, 5 mg/kg, 60 days), the “Toxicity (Weight Loss >25%)” value is listed as 4/6.
As to `CC[C@H](C)[C@H](NC(=O)CCC(=O)O)C(=O)N[C@@H](C)C(=O)N[C@@H](CC(C)C)C(=O)N[C@H]1C[C@H](O[C@H]2C[C@](O)(C(=O)CO)Cc3c(O)c4c(c(O)c32)C(=O)c2c(OC)cccc2C4=O)O[C@@H](C)[C@H]1O` [Suc-Ile-Ala-Leu-Dox], in [3], the “Major Plasma Metabolite” value was “Leu-Dox”, the “Plasma AUC0-6 hr of AL-Dox or AG-Dox*” value was 1.0 µM·h, the “Plasma AUC0-6 hr of L-Dox or G-Dox*” value was found to be 6.2 µM·h and the “Plasma AUC0-6 hr of Dox” value is 0.9 µM·h. Further, in [4] (ratio of IC50), the “Ratio PC-3:LNCaP” value came out at 83. Moreover, the IC50 in [4] (read-out: IC50 LNCAP, 48 hours total incubation) was 1100 nM. In addition, the IC50 in data set [1] (48 hours total incubation, read-out: IC50 PC-3) came to 88000 nM. Moreover, in the data set with Porcine Kidney CD10, the “% hydrolysis/10 hr” value is on record as 12.5 % hydrolysis/10 hr and the “Fraction hydrolyzed relative to standard” value was found to be 1.1. In addition, in the data set on normal ICR mice (intravenous bolus, Day 49), the “SD-MTD” value amounted to 94 mg/kg. For the same compound, the “SD-MTD Molar Ratio (Dox=)” value with normal ICR mice is listed as 3.5. In the data set on Namalwa cells (CD10pos), the IC50 was determined as 6470 nM and the “Ratio Ball-1:Namalwa” value is 4. Moreover, the IC50 in the data set with BALL-1 cells (CD10neg) (read-out: IC50 Ball-1, 24 hours) came to 26000 nM. For the same compound, in the data set with Ramos cells (CD10pos), the “Ratio Ball-1:Ramos” value was 4. Besides, in the data set on Ramos cells (CD10pos) (read-out: IC50 Ramos, 24 hours), the concentration for half-maximal inhibition (IC50) stood at 6430 nM.
As to `CC[C@H](C)[C@H](NC(=O)CCNC(=O)CCC(=O)O)C(=O)N[C@@H](C)C(=O)N[C@@H](CC(C)C)C(=O)N[C@H]1C[C@H](O[C@H]2C[C@](O)(C(=O)CO)Cc3c(O)c4c(c(O)c32)C(=O)c2c(OC)cccc2C4=O)O[C@@H](C)[C@H]1O` [Suc-βAla-Ile-Ala-Leu-Dox], the “Major Plasma Metabolite” value in data set [3] was “Leu-Dox”. In [3], the “Plasma AUC0-6 hr of AL-Dox or AG-Dox*” value stood at 0.5 µM·h. The “Plasma AUC0-6 hr of L-Dox or G-Dox*” value in [3] came to 8.5 µM·h. Further, the “Plasma AUC0-6 hr of Dox” value in data set [3] was 1.5 µM·h. For the same compound, the values for the IC50 (in data set [4] (48 h); with BALL-1 cells (CD10neg) (24 h); in the data set with Ramos cells (CD10pos) (24 h)) were 150 nM, 50000 nM and 420 nM, respectively. The “Ratio Suc-β-Ala-Ile-Ala-Leu/Dox” value in [4] (LnCap, ratio of IC50) is on record as 3; in the data set with Parental CHO cells, 49; in the data set on Parental CHO cells (listed as Suc-β-Ala-Ile-Ala-Leu), 96. In data set [4] (ratio of IC50), the “Ratio PC-3:LNCaP” value is reported as 300. For the same compound, the “% hydrolysis/10 hr” value in the data set with Porcine Kidney CD10 was determined as 22.1 % hydrolysis/10 hr. For the same compound, the “Fraction hydrolyzed relative to standard” value with Porcine Kidney CD10 came out at 2.0. Moreover, the “animals euthanized due to weight loss or paralysis” value in the data set on normal ICR mice (100 mg/kg, by Day 21, groups of five) is recorded as “three”. In addition, in the data set with normal ICR mice, the “SD-MTD Molar Ratio (Dox=)” value was 2.6. In addition, the “Ratio Ball-1:Namalwa” value in the data set with Namalwa cells (CD10pos) came to 172. In addition, the “Ratio Ball-1:Ramos” value in the data set on Ramos cells (CD10pos) worked out at 120.
Consider `COc1cccc2c1C(=O)c1c(O)c3c(c(O)c1C2=O)C[C@@](O)(C(=O)CO)C[C@@H]3O[C@H]1C[C@H](NC(=O)[C@H](CC(C)C)NC(=O)[C@H](C)NC(=O)[C@H](CC(C)C)NC(=O)CCNC(=O)CCC(=O)O)[C@H](O)[C@H](C)O1` [Suc-βAla-Leu-Ala-Leu-Dox], for which the “Major Plasma Metabolite” value in [3] is “Ala-Leu-Dox”. For the same compound, half-maximal inhibition in [4] (IC50) required 510 nM. Also, half-maximal inhibition in [4] (48 h) (IC50) was put at 870 nM. Besides, the “shift of IC50” value in data set [4] (LNCaP cells treated with 100 nM of phosphoramidon (data not shown)) was 7 fold. The “Ratio PC-3:LNCaP” value in data set [4] (ratio of IC50) is listed as 32. Also, in data set [2] (setting [5]), the “Tumor Growth Inhibition (% over control) D14” value was “D14: 53.4** %”, the “Tumor Growth Inhibition (% over control) D21” value is on record as “D21: 66.2** %”, the “Tumor Weight (mg) D14” value was “D14: 391 ± 70 (n = 7) mg” and the “Tumor Weight (mg) D21” value is “D21: 318 ± 67 (n = 7) mg”. Moreover, in data set [2] (Dose 75 mg/kg (Table 19), Q7DX5, mice affected/total), the “Toxicity (Weight Loss >25%)” value is 7/7. In the data set with Porcine Kidney CD10, the “% hydrolysis/10 hr” value amounted to 10.9 % hydrolysis/10 hr and the “Fraction hydrolyzed relative to standard” value stood at 1.0. This compound also showed a mortality with normal ICR mice (75 mg/kg dose group, by Day 35) of 40%. Moreover, the “Ratio Ball-1:Namalwa” value with Namalwa cells (CD10pos) came out at 3. Further, in the data set with BALL-1 cells (CD10neg) (24 h), the concentration for half-maximal inhibition (IC50) amounted to 17000 nM. Moreover, in the data set with Ramos cells (CD10pos), 840 nM corresponded to half-maximal inhibition (IC50) and the “Ratio Ball-1:Ramos” value is recorded as 2. The compound further registered an IC50 with Ramos cells (CD10pos) (24 h) of 6930 nM.
